Measured values taken from article PMC11183015, “In vivo stable ^211At-labeled prostate-specific membrane antigen-targeted tracer using a neopentyl glycol structure” (EJNMMI Radiopharmacy and Chemistry, 2024).
Marks after values point to notes of the source that are not given here.

Legend:
Format in all cases: in vivo, mouse
[1] = Biodistribution of radioactivity in normal mice
Procedure: Six-week-old male ddY mice were injected via the tail vein with each radiolabeled PSMA derivative. Animals were sacrificed and the organs were dissected at 10 min, 1 h, 3 h, and 6 h after injection. Metabolic cages were used for housing normal mice. The tissues of interest were excised and weighed, and the radioactivity counts in each tissue were determined using an auto-well gamma counter. Each value was expressed as the mean percent injected dose/g tissue ± SD for a group of 3–5 animals, except those for the stomach, intestine, and thyroid.

[2] = Analysis of radiometabolites in urine by RP-HPLC; conditions: normal ddY mice, urine up to 6 h after injection
Procedure: Urine samples were collected from 6-week-old ddY mice 6 h after injection of each ^125I-labeled PSMA derivative (100 µL, 370 kBq). After ethanol precipitation of proteins, the urine samples were filtered through a polycarbonate membrane (0.45 µm) and analyzed by RP-HPLC (System 2).

LNCaP cell xenografts = assay: Biodistribution of radioactivity in tumor-bearing mice; conditions: for Radioactivity in Intestine / Radioactivity in Neck / Radioactivity in Stomach: LNCaP tumor-bearing BALB/c-nu/nu mice; for Radioactivity in Blood / Radioactivity in Bone / Radioactivity in Heart / Radioactivity in Kidney / Radioactivity in Liver / Radioactivity in Lung / Radioactivity in Muscle / Radioactivity in Pancreas / Radioactivity in Spleen / Radioactivity in Tumor: male, BALB/c-nu/nu, mouse, in vivo
Procedure: Animal studies were conducted in accordance with the institutional guidelines approved by the Chiba University Animal Care Committee (Permit No. 4–183). Five-week-old male ddY mice and BALB/c-nu/nu mice were purchased from Japan SLC Inc. (Hamamatsu, Japan). LNCaP cells (5.0 × 10^6 cells) were suspended in 100 μL of PBS and Matrigel (BD Biosciences, Franklin Lakes, NJ, USA) in a 1:1 ratio. Tumor xenograft models were prepared via subcutaneous injection of this LNCaP cell suspension into BALB/c nude mice.
Biodistribution studies were conducted using male BALB/c-nu/nu mice bearing LNCaP cell xenografts at 1 and 3 h postinjection of [^211At]At-NpG-D-PSMA (100 µL, 37 kBq) and 1 and 6 h postinjection of ^125I-labeled PSMA derivative (100 µL, 11.1 kBq). In the blocking study, [^125I]I-NpG-D-PSMA was coinjected with 2-PMPA (50 mg/kg weight) into tumor-bearing mice via the tail vein. At 1 h postinjection, the mice were sacrificed. The tissues of interest were excised and weighed, and the radioactivity counts in each tissue were determined using an auto-well gamma counter. Each value was expressed as the mean percent injected dose/g tissue ± SD for a group of 3–5 animals, except those for the stomach, intestine, and thyroid.

[3] = normal ddY mice, i.v., 6 h, metabolic cages

With `O=C(O)CCC(NC(=O)NC(CCCCNC(=O)C(Cc1ccc2ccccc2c1)NC(=O)C(CCC(=O)O)NC(=O)C(CCC(=O)O)NC(=O)COCC(CO)(CO)C[125I])C(=O)O)C(=O)O` [[^125I]I-NpG-L-PSMA] the “Radioactivity in Blood” value ([1]; normal ddY mice, i.v., 10 min) was 1.48 ± 0.20^b %ID/g, the “Radioactivity in Bone” value ([1]; normal ddY mice, i.v., 10 min) was 0.68 ± 0.18^a %ID/g and the “Radioactivity in Heart” value ([1]; normal ddY mice, i.v., 10 min) was 1.12 ± 0.24 %ID/g. The “Radioactivity in Intestine” value ([1]; normal ddY mice, i.v., 10 min) was 2.49 ± 0.66 %ID, the “Radioactivity in Kidney” value ([1]; normal ddY mice, i.v., 10 min) was 92.3 ± 11.0^b %ID/g and the “Radioactivity in Liver” value ([1]; normal ddY mice, i.v., 10 min) was 1.64 ± 0.33^a %ID/g. The “Radioactivity in Lung” value ([1]; normal ddY mice, i.v., 10 min) was 2.15 ± 0.49^a %ID/g, the “Radioactivity in Muscle” value ([1]; normal ddY mice, i.v., 10 min) was 0.62 ± 0.18^a %ID/g and the “Radioactivity in Neck” value ([1]; normal ddY mice, i.v., 10 min) was 0.34 ± 0.09^a %ID. The “Radioactivity in Pancreas” value ([1]; normal ddY mice, i.v., 10 min) was 0.80 ± 0.16 %ID/g, the “Radioactivity in Spleen” value ([1]; normal ddY mice, i.v., 10 min) was 2.23 ± 1.10 %ID/g and the “Radioactivity in Stomach” value ([1]; normal ddY mice, i.v., 10 min) was 0.33 ± 0.09 %ID. The “Radioactivity in Blood” value ([1]; normal ddY mice, i.v., 1 h) was 0.26 ±0.01 %ID/g, the “Radioactivity in Bone” value ([1]; normal ddY mice, i.v., 1 h) was 0.36 ± 0.43 %ID/g and the “Radioactivity in Heart” value ([1]; normal ddY mice, i.v., 1 h) was 0.60 ± 0.37 %ID/g. For the same compound, the “Radioactivity in Intestine” value ([1]; normal ddY mice, i.v., 1 h) was 3.40 ± 0.86^a %ID, the “Radioactivity in Kidney” value ([1]; normal ddY mice, i.v., 1 h) was 113.6 ±3.86^ab %ID/g and the “Radioactivity in Liver” value ([1]; normal ddY mice, i.v., 1 h) was 0.99 ± 0.14^ab %ID/g. The “Radioactivity in Lung” value ([1]; normal ddY mice, i.v., 1 h) was 0.69 ± 0.16^ab %ID/g, the “Radioactivity in Muscle” value ([1]; normal ddY mice, i.v., 1 h) was 0.14 ± 0.03 %ID/g and the “Radioactivity in Neck” value ([1]; normal ddY mice, i.v., 1 h) was 0.07 ± 0.03^a %ID. For the same compound, the “Radioactivity in Pancreas” value ([1]; normal ddY mice, i.v., 1 h) was 1.40 ± 1.78 %ID/g, the “Radioactivity in Spleen” value ([1]; normal ddY mice, i.v., 1 h) was 1.05 ± 0.19^ab %ID/g and the “Radioactivity in Stomach” value ([1]; normal ddY mice, i.v., 1 h) was 0.35 ± 0.30 %ID. For the same compound, the “Radioactivity in Blood” value ([1]; normal ddY mice, i.v., 3 h) was 0.04 ± 0.01 %ID/g, the “Radioactivity in Bone” value ([1]; normal ddY mice, i.v., 3 h) was 0.09 ± 0.04 %ID/g and the “Radioactivity in Heart” value ([1]; normal ddY mice, i.v., 3 h) was 0.06 ± 0.01 %ID/g. For the same compound, the “Radioactivity in Intestine” value ([1]; normal ddY mice, i.v., 3 h) was 4.96 ± 0.17^ab %ID, the “Radioactivity in Kidney” value ([1]; normal ddY mice, i.v., 3 h) was 38.6 ± 11.9^a %ID/g and the “Radioactivity in Liver” value ([1]; normal ddY mice, i.v., 3 h) was 0.43 ± 0.01^ab %ID/g. The “Radioactivity in Lung” value ([1]; normal ddY mice, i.v., 3 h) was 0.21 ± 0.03^ab %ID/g, the “Radioactivity in Muscle” value ([1]; normal ddY mice, i.v., 3 h) was 0.10 ± 0.05 %ID/g and the “Radioactivity in Neck” value ([1]; normal ddY mice, i.v., 3 h) was 0.01 ± 0.00 %ID. For the same compound, the “Radioactivity in Pancreas” value ([1]; normal ddY mice, i.v., 3 h) was 0.12 ± 0.03 %ID/g, the “Radioactivity in Spleen” value ([1]; normal ddY mice, i.v., 3 h) was 0.22 ± 0.07^ab %ID/g and the “Radioactivity in Stomach” value ([1]; normal ddY mice, i.v., 3 h) was 0.08 ± 0.02^b %ID. The “Radioactivity in Blood” value ([1]; normal ddY mice, i.v., 6 h) was 0.03 ± 0.02 %ID/g, the “Radioactivity in Bone” value ([1]; normal ddY mice, i.v., 6 h) was 0.05 ± 0.01 %ID/g and the “Radioactivity in Heart” value ([1]; normal ddY mice, i.v., 6 h) was 0.05 ± 0.05 %ID/g. For the same compound, the “Radioactivity in Intestine” value ([1]; normal ddY mice, i.v., 6 h) was 4.60 ± 2.56 %ID, the “Radioactivity in Kidney” value ([1]; normal ddY mice, i.v., 6 h) was 21.2 ± 9.70^a %ID/g and the “Radioactivity in Liver” value ([1]; normal ddY mice, i.v., 6 h) was 0.53 ±0.02^ab %ID/g. The “Radioactivity in Lung” value ([1]; normal ddY mice, i.v., 6 h) was 0.09 ± 0.03^a %ID/g, the “Radioactivity in Muscle” value ([1]; normal ddY mice, i.v., 6 h) was 0.05 ± 0.01 %ID/g and the “Radioactivity in Neck” value ([1]; normal ddY mice, i.v., 6 h) was 0.02 ± 0.01 %ID. The “Radioactivity in Pancreas” value ([1]; normal ddY mice, i.v., 6 h) was 0.07 ± 0.04 %ID/g, the “Radioactivity in Spleen” value ([1]; normal ddY mice, i.v., 6 h) was 0.11 ± 0.03^a %ID/g and the “Radioactivity in Stomach” value ([1]; normal ddY mice, i.v., 6 h) was 0.23 ± 0.29 %ID. The “Radioactivity in Feces” value [1, 3] was 0.45 ± 0.48 %ID, the “Radioactivity in Urine” value [1, 3] was 53.3 ± 5.56 %ID and the “Accumulation in the stomach and thyroid (stability against deiodination)” value ([1]; normal mice) was “low accumulation”. The “Form of radioactivity excreted in urine” value [2] was “intact [^125I]I-NpG-L-PSMA and as radiometabolites”, the “Radioactivity in Intestine” value (LNCaP cell xenografts; 1 h) was 2.52 ± 0.29^a %ID and the “Radioactivity in Neck” value (LNCaP cell xenografts; 1 h) was 0.45 ± 0.13^a %ID. For the same compound, the “Radioactivity in Stomach” value (LNCaP cell xenografts; 1 h) was 0.23 ± 0.04 %ID, the “Radioactivity in Intestine” value (LNCaP cell xenografts; 6 h) was 1.87 ± 0.41 %ID and the “Radioactivity in Neck” value (LNCaP cell xenografts; 6 h) was 3.19 ± 1.28 %ID. For the same compound, the “Radioactivity in Stomach” value (LNCaP cell xenografts; 6 h) was 0.15 ± 0.07 %ID, the “Radioactivity in Blood” value (LNCaP cell xenografts; 1 h) was 0.66 ± 0.18 %ID/g and the “Radioactivity in Bone” value (LNCaP cell xenografts; 1 h) was 0.47 ± 0.12^a %ID/g. For the same compound, the “Radioactivity in Heart” value (LNCaP cell xenografts; 1 h) was 1.62 ± 0.87 %ID/g, the “Radioactivity in Kidney” value (LNCaP cell xenografts; 1 h) was 223 ± 5.91^a %ID/g and the “Radioactivity in Liver” value (LNCaP cell xenografts; 1 h) was 1.85 ± 0.50^a %ID/g. The “Radioactivity in Lung” value (LNCaP cell xenografts; 1 h) was 2.78 ± 0.93 %ID/g, the “Radioactivity in Muscle” value (LNCaP cell xenografts; 1 h) was 0.64 ± 0.21^a %ID/g and the “Radioactivity in Pancreas” value (LNCaP cell xenografts; 1 h) was 1.17 ± 0.38 %ID/g. The “Radioactivity in Spleen” value (LNCaP cell xenografts; 1 h) was 37.0 ± 10.4 %ID/g, the “Radioactivity in Tumor” value (LNCaP cell xenografts; 1 h) was 9.19 ± 1.89^a %ID/g and the “Radioactivity in Blood” value (LNCaP cell xenografts; 6 h) was 0.11 ± 0.03^a %ID/g. For the same compound, the “Radioactivity in Bone” value (LNCaP cell xenografts; 6 h) was 0.09 ± 0.02 %ID/g, the “Radioactivity in Heart” value (LNCaP cell xenografts; 6 h) was 0.22 ± 0.06^a %ID/g and the “Radioactivity in Kidney” value (LNCaP cell xenografts; 6 h) was 226 ± 30.0 %ID/g. For the same compound, the “Radioactivity in Liver” value (LNCaP cell xenografts; 6 h) was 0.44 ± 0.02^a %ID/g, the “Radioactivity in Lung” value (LNCaP cell xenografts; 6 h) was 0.59 ± 0.12^a %ID/g and the “Radioactivity in Muscle” value (LNCaP cell xenografts; 6 h) was 0.27 ± 0.31 %ID/g. For the same compound, the “Radioactivity in Pancreas” value (LNCaP cell xenografts; 6 h) was 0.26 ± 0.08^a %ID/g, the “Radioactivity in Spleen” value (LNCaP cell xenografts; 6 h) was 4.55 ± 1.18^a %ID/g and the “Radioactivity in Tumor” value (LNCaP cell xenografts; 6 h) was 11.0 ± 2.68^a %ID/g.
